In patent US5512561A, “Aryl substituted dibenzoxazepine compounds, pharmaceutical compositions and methods of use” (G. D. Searle & Co., priority 1995, dated 1996):
Counter-ions that a name gives are not always drawn.

Assays:
[1] = system: prostaglandin E2 -induced contractions of segments of guinea pig ileum; test: Prostaglandin (PGE) Antagonism Assay in guinea pig ileum; type: cell-based; details: dose ratio of EC50 doses of prostaglandin E2; initial test compound concentration 3 micromolar; 37° C.
Procedure: In order to determine the effectiveness of several of the compounds of the present invention ("test compounds") as prostaglandin E2 antagonists,a prostaglandin antagonism assay was conducted, as described below, to determine the ability of these compounds to inhibit prostaglandin E2 -induced contractions of segments of guinea pig ileum. […] Male albino guinea pigs weighing 200 to 500 grams were sacrificed by cervical dislocation. The ilea were then quickly removed from the guinea pigs and placed in a modified Tyrode solution, a solution which is known to those skilled in the art, containing one-half of the usual amount of magnesium ions. Segments of ileum about 2 cm long were then cut and mounted in a 10-mL tissue bath containing the modified Tyrode solution. […] Data for a control prostaglandin E2 dose response curve plotting concentration of prostaglandin E2 versus the intensity of contractions, detected isotonically, was then obtained by experimentally adjusting the dose of the prostaglandin E2 being injected into the tissue bath, in a manner known by those of skill in the art. Solutions or suspensions containing an initial concentration (3 micromolar) of a test compound in modified Tyrode solution ("test solutions/suspensions") were then separately substituted for the control bath solution. Each test solution/suspension was then kept in constant contact with the ileum tissue, except for brief periods to drain the bath in preparation for rinsing with fresh test solution/suspension. A second prostaglandin E2 dose response curve was then generated for prostaglandin E2 in the presence of a test compound. A dose ratio of EC50 doses was then calculated from the results of each test in a manner known by those of skill in the art.

[2] = system: mice; test: Writhing Assay (PBQ-induced writhing, analgesia in mice); type: in vivo, mice (Charles River male albino); details: Mus musculus, po, 25 min, intragastric, PBQ i.p. 25 minutes later, writhes <= one-half the median of saline control; for responders at 30 mg/kg: 30 mg per kilogram, read-out: WRITHING ASSAY Number Out of Nine or Ten (mice in which test compound produced analgesia) (converted); for responders at 10 mg/kg: 10 mg per kilogram, read-out: WRITHING ASSAY Number Out of Nine or Ten (mice in which test compound produced analgesia)
Excerpt: The Writhing Assay is one of the most widely-used experimental procedures for measuring the analgesic activity of different narcotic and nonnarcotic analgesic agents, and involves the continuous, chemically-induced pain of visceral origin to an animal, such as a mouse or rat. Gyires et al., Arch. int. […] Vander Wende et al., Fed. […] Chemicals which may be used to induce this pain include phenylbenzoquinone (PBQ) and acetic acid. As a result of the chemical irritation to the animal, a characteristic stretching and writhing of the animal (dorsiflexion of the animal's back, extension of its hindlimbs and the strong contraction of its abdominal musculature) will generally occur. […] Drugs which reduce the number of writhes of the animal appear to restore the normal nociceptive threshold of the animal.
Charles River male albino mice, weighing 20 to 30 grams were used in this assay.
Ten mice which were given saline in place of a test compound of the invention were used as a control group.
Five minutes later, each mouse was individually placed into a glass beaker for observation, and the number of writhes occurring during the following ten-minute period was counted.

[3] = system: isolated smooth muscle preparations; details: cited from earlier work

SMILES | PGE ANTAGONISM IN GUINEA PIG ILEUM Dose Ratio (DR) [1] | responders at 30 mg/kg [2] | responders at 10 mg/kg [2] | inhibition of the stimulant actions of prostaglandins on isolated smooth muscle preparations [3]
O=C(NCc1cccnc1)c1ccccc1C(=O)N1Cc2ccccc2Oc2ccc(Cl)cc21 [Example 13, 2-(8-chlorodibenzb,f! 1,4!oxazepin-10 f 11H)yl)carbonyl!-N-(3-pyridinylmethyl)benzamide, hydrochloride] | 1.10 | 50% |  | 
O=C(NCc1cccnc1)c1cccc(C(=O)N2Cc3ccccc3Oc3ccc(Cl)cc32)n1 [Example 31, 6-(8-chlorodibenzb,f! 1,4!oxazepin-10(11H)yl)carbonyl!-N-(3-pyridinylmethyl)-2-pyridinecarboxamide, hydrochloride] | 1.70 | 60% |  | 
O=C(c1ccc(/C=C\c2ccncc2)cc1)N1Cc2ccccc2Oc2ccc(Cl)cc21 [Example 8, Compound E, 8-chloro-10,11-dihydro-10-4-2Z-(4-pyridinyl)ethenyl!benzoyl!dibenz b,f! 1 ,4!oxazepine, hydrochloride] | 4.8 |  | 90% | 
O=S(=O)(c1ccc(CCc2ccncc2)cc1)N1Cc2ccccc2Oc2ccc(Cl)cc21 [Example 3, 8-chloro-10,11-dihydro-10-4-2-(4-pyridinyl)ethyl!phenyl!sulfonyl!dibenzb,f! 1,4!oxazepine, monohydrochloride] | 1.0 | 50% |  | 
O=C(Cc1ccccc1)NNC(=O)N1Cc2ccccc2Oc2ccc(Cl)cc21 [SC-18637] |  |  |  | inhibit the stimulant actions of prostaglandins
O=C(NCc1ccccn1)c1ccc(CN2Cc3ccccc3Oc3ccc(Cl)cc32)cn1 [Example 36, 5-(8-chlorodibenzb,f! 1,4!oxazepin-10(11H)yl)methyl!-N-(2-pyridinylmethyl!-2-pyridinecarboxamide, monohydrochloride] | 2.6 | 77.8% |  | 
O=C(NCc1cccnc1)c1cccc(C(=O)N2Cc3ccccc3Oc3ccc(Cl)cc32)c1 [Example 17, 3-(8-chlorodibenzb,f! 1,4!oxazepin-10(11H!yl!carbonyl!-N-(3-pyridinylmethyl)benzamide, monohydrochloride] | 66.0 | 50% |  | 
CC(=O)NNC(=O)N1Cc2ccccc2Oc2ccc(Cl)cc21 [SC-19220] |  |  |  | inhibit the stimulant actions of prostaglandins
O=C(NCc1ccccn1)c1cccc(C(=O)N2Cc3ccccc3Oc3ccc(Cl)cc32)n1 [Example 32, 6-(8-chlorodibenzb,f! 1,4!oxazepin-10(11H)yl)carbonyl!-N,(2-pyridinylmethyl)-2-pyridinecarboxamide, hydrochloride] | 0.63 | 30% |  | 
O=C(NCc1ccncc1)c1cccc(C(=O)N2Cc3ccccc3Oc3ccc(Cl)cc32)c1 [Example 16, 3-f 8-chlorodibenz b,f! 1,4!oxazepin-10(11H)yl)carbonyl!-N-(4-pyridinylmethyl)benzamide, monohydrochloride] | 4.67 | 80% |  | 
O=C(NCc1ccccn1)c1cccc(C(=O)N2Cc3ccccc3Oc3ccc(Cl)cc32)c1 [Example 18, 3-(8-chlorodibenzb,f! 1,4!oxazepin-10(11H)yl)carbonyl!-N-(2-pyridinylmethyl!benzamide, hydrochloride] | 114 | 70% |  | 
O=C(c1ccc(CCc2ccncc2)cc1)N1Cc2ccccc2Oc2ccc(Cl)cc21 [Example 8, Compound F, 8-chloro-10,11-dihydro-10-4-2-(4-pyridinyl)ethyl!benzoyl!dibenz b,f! 1,4! oxazepine, hydrochloride] | 1.1 |  | 90% | 
O=C(NCc1ccncc1)c1ccc(CN2Cc3ccccc3Oc3ccc(Cl)cc32)cn1 [Example 34, 5-(8-chlorodibenzb,f! 1,4!oxazepin-10(11H)yl)methyl!-N-(4-pyridinylmethyl)-2-pyridinecarboxamide, monohydrochloride] | 1.16 | 20% |  | 
O=C(NCc1cccnc1)c1ccc(S(=O)(=O)N2Cc3ccccc3Oc3ccc(Cl)cc32)cc1 [Example 5, 4-(8-chlorodibenzb,f! 1,4!oxazepin-10(11H)yl) sulfonyl!-N-(3-pyridinylmethyl)benzamide, monohydrochloride] | 4.4 | 30% |  | 
O=C(NCc1ccncc1)c1ccc(C(=O)N2Cc3ccccc3Oc3ccc(Cl)cc32)cc1 [Example 9, 4-(8-chlorodibenzb,f! 1,4!oxazepin-10(11H)-yl)carbonyl!-N-(4-pyridinylmethyl)benzamide, hydrochloride] | 2.29 |  | 80% | 
O=C(NCc1cccnc1)c1ccc(C(=O)N2Cc3ccccc3Oc3ccc(Cl)cc32)cc1 [Example 10, 4-(8-chlorodibenzb,f! 1,4!oxazepin-10(11H)yl)carbonyl!-N-f3,pyridinylmethyl)benzamide, hydrochloride] | 3.2 | 40% |  | 
O=C(NCc1ccncc1)c1ccc(S(=O)(=O)N2Cc3ccccc3Oc3ccc(Cl)cc32)cc1 [Example 4, 4-(8-chlorodibenzb,f! 1,4!oxazepin-10(11H)yl)sulfonyl!-N-(4-pyridinylmethyl)benzamide, monohydrochloride] |  | 60% |  | 
O=C(NCc1ccncc1)c1ccc(CN2Cc3ccccc3Oc3ccc(Cl)cc32)cc1 [Example 27, 4-(8-chlorodibenzb,f! 1,4!oxazepin-10(11H)yl)methyl!-N-(4-pyridinylmethyl)benzamide, hydrochloride] | 22.7 | 50% |  | 
O=C(NCc1ccccn1)c1ccc(CN2Cc3ccccc3Oc3ccc(Cl)cc32)cc1 [Example 29, 4-(8-chlorodibenz E b,f! 1,4!oxazepin-10(11H)yl)methyl!-N-(2-pyridinylmethyl)benzamide, hydrochloride] | 10.4 | 50% |  | 
O=C(NCc1cccnc1)c1ccc(CN2Cc3ccccc3Oc3ccc(Cl)cc32)cc1 [Example 28, 4-(8-chlorodibenzb,f! 1,4!oxazepin-10(11H)yl)methyl!-N-(3-pyridinylmethyl)benzamide, hydrochloride] | 3.59 | 60% |  | 
O=C(NCc1ccncc1)c1cccc(C(=O)N2Cc3ccccc3Oc3ccc(Cl)cc32)n1 [Example 30, 6-(8-chlorodibenzb,f! 1,4!oxazepin-10(11H)yl)carbonyl!-N-(4-pyridinylmethyl)-2-pyridinecarboxamide, hydrochloride] | 0.81 | 70% |  | 
O=C(NCc1cccnc1)c1ccc(CN2Cc3ccccc3Oc3ccc(Cl)cc32)cn1 [Example 35, 5-(8-chlorodibenzb,f! 1,4!oxazepin-10(11H)yl)methyl!-N-(3-pyridinylmethyl)-2-pyridinecarboxamide, monohydrochloride] |  | 70% |  | 
O=C(NCc1ccccn1)c1ccccc1C(=O)N1Cc2ccccc2Oc2ccc(Cl)cc21 [Example 14, 2-(8-chlorodibenzb,f! 1,4!oxazepin-10(11H)-yl) carbonyl!-N-(2-pyridinylmethyl!benzamide, dihydrochloride] | 4.07 | 30% |  | 
O=C(NCc1ccncc1)c1ccccc1C(=O)N1Cc2ccccc2Oc2ccc(Cl)cc21 [Example 12, 2-(8-chlorodibenzb,f! 1,4!oxazepin-10(11H)yl)carbonyl!-N-(4-pyridinylmethyl)benzamide, hydrochloride] | 4.23 | 33.3% |  | 
